Source: ChEMBL document CHEMBL1158422, “A library of novel allosteric inhibitors against fructose 1,6-bisphosphatase” (Bioorg Med Chem, 2009)
Several values for one entry are separate records, joined by “and”; a condition that tells them apart may be missing. Identical values can stand only once. Activity calls are given as the source filed them. The rule behind the calls is not given here.

Each compound was assayed against T1, Fructose-1,6-bisphosphatase 1 (Sus scrofa) (UniProt P00636) (assay: Inhibition of pig FBPase expressed in Escherichia coli EK1601 up to 300 uM by spectrophotometry). Conditions: not given.
T1 sequence (whole entry): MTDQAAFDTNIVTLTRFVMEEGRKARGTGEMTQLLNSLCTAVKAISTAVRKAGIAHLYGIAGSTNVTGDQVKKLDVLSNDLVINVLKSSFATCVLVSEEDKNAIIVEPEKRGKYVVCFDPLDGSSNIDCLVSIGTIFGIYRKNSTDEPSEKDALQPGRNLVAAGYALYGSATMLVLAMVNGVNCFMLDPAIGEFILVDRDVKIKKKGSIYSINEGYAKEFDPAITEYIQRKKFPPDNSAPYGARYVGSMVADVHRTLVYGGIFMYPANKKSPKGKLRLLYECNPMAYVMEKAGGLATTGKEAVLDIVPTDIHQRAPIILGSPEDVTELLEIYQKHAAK

SMILES | inhibition
O=[N+]([O-])c1cccc(Nc2nc(-c3ccccc3)cs2)c1 | inactive

What follows are compounds tested against T2, Fructose-1,6-bisphosphatase 1 (Sus scrofa, UniProt P00636) (assay: Inhibition of pig FBPase expressed in Escherichia coli EK1601 by spectrophotometry). Conditions: not given.
T2 sequence (P00636 whole entry): T1 sequence (whole entry)

SMILES | IC50
O=[N+]([O-])c1ccc(Nc2nc(-c3ccccc3)cs2)cc1 | Not Active
O=[N+]([O-])c1ccc(-c2csc(Nc3ccccc3)n2)cc1 | Not Active

Same assay, conditions: read-out: IC50

SMILES | IC50
O=C(O)c1ccc(S(=O)(=O)c2ccc(C(=O)O)cc2)cc1 | 750 µM
Oc1cccc(Nc2nc(-c3ccc(O)cc3O)cs2)c1 | 6 µM
Oc1ccc(-c2csc(Nc3ccccc3O)n2)c(O)c1 | 20 µM
O=C(O)c1cccc(Nc2nc(-c3ccc(O)cc3)cs2)c1 | 48 µM
Oc1ccc(-c2csc(Nc3ccccc3)n2)c(O)c1 | 343 µM
NS(=O)(=O)c1cccc(Nc2nc(-c3ccc(O)cc3)cs2)c1 | 50 µM
Oc1cccc(Nc2nc(-c3ccccc3)cs2)c1 | 35 µM
Oc1ccc(Nc2nc(-c3ccccc3)cs2)cc1 | 124 µM
c1ccc(Nc2nc(-c3ccccc3)cs2)cc1 | 2500 µM
Nc1nc(-c2ccccc2)cs1 | 1390 µM
Oc1ccc(Nc2nc(-c3ccc(O)cc3O)cs2)cc1 | 11 µM
Oc1ccc(-c2csc(Nc3cccc(O)c3)n2)cc1 | 13 µM
Oc1ccc(-c2csc(Nc3ccccc3)n2)cc1 | 318 µM
Oc1ccccc1-c1csc(Nc2ccccc2)n1 | 119 µM
Nc1nc(-c2ccc(O)cc2O)cs1 | 93 µM
NS(=O)(=O)c1cccc(Nc2nc(-c3ccccc3)cs2)c1 | 104 µM
Oc1ccc(-c2csc(Nc3ccccc3O)n2)cc1 | 15 µM
NS(=O)(=O)c1ccc(Nc2nc(-c3ccccc3)cs2)cc1 | 145 µM
Nc1ncnc2c1ncn2[C@@H]1O[C@H](COP(=O)(O)O)[C@@H](O)[C@H]1O [ADENOSINE PHOSPHATE] | 1.3 µM
Oc1ccccc1Nc1nc(-c2ccccc2)cs1 | 270 µM
O=[N+]([O-])c1ccc(Nc2nc(-c3ccc(O)cc3)cs2)cc1 | 246 µM
O=[N+]([O-])c1cccc(Nc2nc(-c3ccc(O)cc3)cs2)c1 | 48 µM
Cc1cc(C)n(CC(O)COc2ccc3ccccc3c2)n1 (stereo not drawn) | 3000 µM
O=C(O)c1cccc(Nc2nc(-c3ccccc3)cs2)c1 | 571 µM
NS(=O)(=O)c1ccc(Nc2nc(-c3ccc(O)cc3)cs2)cc1 | 32 µM and 31.6 µM
Nc1nc(-c2ccc(O)cc2)cs1 | 1.1 µM
NS(=O)(=O)c1ccc(Nc2nc(-c3ccc(O)cc3O)cs2)cc1 | 55 µM
Oc1ccc(Nc2nc(-c3ccc(O)cc3)cs2)cc1 | 48 µM
CCc1c(C)sc(NC(=S)NCc2ccccn2)c1C(=O)OC | 20 µM

What follows are compounds tested against T1, Fructose-1,6-bisphosphatase 1 (Sus scrofa) (assay: Inhibition of pig FBPase expressed in Escherichia coli EK1601 at 100 uM by spectrophotometry). Conditions: not given.

SMILES | inhibition
O=[N+]([O-])c1ccc(-c2csc(Nc3ccc(O)cc3)n2)cc1 | 87%
